Test [1] relates to C57Bl/6 mice. In words: AGISHA model with AngII as injury inducer (ACR in urine). It counts as in vivo. The text has this: Five groups with 10-12 mice per group (C57Bl/6, Charles River Laboratories, 6-7 weeks old) were set for one experiment. After delivery, animals remained in a temperature- and light-controlled room with standardized mouse chow and water ad libitum for a one week acclimatization period, following guidelines of local governmental institutions (LANUV Germany). The groups were divided as follows (see FIG. 1): • 1. Control group without AngII bolus injection, but with control saline and additional (oral) administration of drug vehicle (10% ethanol, 40% solutol, 50% water or saline). • 2. AngII group, treated with AngII in normal saline, and drug vehicle. AngII administration occurred in two bolus injections (i.v.+s.c.) of 10 μg (5 μg i.v.+5 μg s.c.), 16 μg (8 μg i.v.+8 μg s.c.) and 20 μg (10 μg i.v.+10 μg s.c.) per mouse, where the first bolus was injected intravenously and the second bolus subcutaneously. The drug vehicle was administered orally.
3. Candidate groups 3 and 4: AngII injection and additional treatment with the investigated drug/drugs. For substance testing, drugs or appropriated vehicles were administered orally, via i.v., s.c., or i.p. Administration occurred prior to or after AngII-injection. For example, investigated drug/drugs were given orally 30 minutes before the induction of the injury. • 4. Group 5 is the positive control group Animals were injected with AngII and treated orally with Losartan 30 mg/kg. Losartan is an AngII receptor blocker AT1 (Pieter B M et al, Pharma. Rev., 1993, Kang P M et al, Progress in Cardiology, 1994).
After AngII injection animals were placed in metabolic cages (Technoplast, Italy) for urine collection for up to 4 hours. At the end of the experiment the urine was analyzed to quantify the ACR. More specifically, the collected urine was analyzed using an automatic analyzer for urinary albumin as well as urinary creatinine (Coban® Integra 400, Roche, Basel, SUI) or using the Mouse albumin ELISA kit (ABCAM, Cambridge, UK). […] The AGISHA model was performed in 3 identical cycles with a one-week break for recovery.
Negative and positive control experiment. To confirm the findings shown in FIG. 2-4, the mode of action in AGISHA was investigated. In the following experiment, three of the animal groups were pre-treated with three different drugs by oral application 30 minutes before administration of injury inducer (see FIG. 5). • 1) Enalapril 10 mg/kg, an angiotensin-converting enzyme (ACE) inhibitor, is standard of care for high blood pressure. It was used as positive modulator control 1 of the renin-angiotensin system (RAS) in the AGISHA model. • 2) Losartan potassium, 30 mg/kg, angiotensin II type I receptor (AT1) antagonist, standard of care for high blood pressure (Kang et al, 1994; Sica D A et al, Clin Parmacokinet., 2005) was used as positive modulator control 2 of the RAS system in the AGISHA model. • 3) Tivozanib, 3 mg/kg, vascular endothelial grow factor receptor tyrosine kinase inhibitor (Campas C et al, Drugs Fut., 2009) was used as negative modulator of the RAS system during AGISHA model. […]
The experiment was performed as described in example 5, except that the sGC stimulator 5-cyclopropyl-2-[1-(2-fluorobenzyl)-1H-pyrazolo[3,4-b]pyridin-3-yl]pyrimidin-4-amine was used for treatment. […] Losartan (30 mg/kg) was used as positive control.

For test [2], the system named is rat model of hypertension. Particulars: Hoffmann L S et al. 2015; cited from earlier work.
Test [3] has as its system C57Bl/6 mice. In words: AGISHA model with Vasopressin (AVP) as injury inducer (ACR in urine). It counts as in vivo. As to conditions: AVP 10 μg i.v.+10 μg s.c.; vs NaCl.
Another test deals with mice. In words: GFR-based model with AVP and Sinestrin-FITC. The format is in vivo. Particulars: AVP 35 μg (15 μg i.v. + 20 μg second bolus); vs control group. Here is the method:
A similar setup (FIG. 23) was used with AVP (Sigma-Aldrich, Mo.) at a dose of 35 μg, i.e. using a first bolus with 15 μg AVP, injected i.v. in combination with Sinestrin-FITC 150 mg/kg (50 ul+50 ul) and using a second bolus of 20 μg AVP, 100 uL, injected i.v. As before GFR, was decreased by AVP compared with the control group.

Test [4] has as its system Male BL6/J mice. In words: GFBI test model with Sema3a as injury inducer (half-life of Ficoll-FITC). The format is in vivo. Particulars: Sema3a 0.5 μg/g bodyweight i.v., vs BSA control. The protocol: (§1) AngII induced GBM damage is a fast and stable trigger method to mimic human hypertensive glomerular disease or its complications. However, a non-hypertensive trigger was required to study the non-hypertensive kidney pathologies. […] For the example at hand, other than described by Tapia R et al, Sema3a was injected i.v. and ACR and GFB integrity were evaluated in the following setup with the following experimental groups. • 1) Male BL6/J mice were injected via tail vein with a mix of Ficoll-FITC 150 mg/kg and BSA (0.5 μg/g of BW), in a maximal volume of 100 μl. • 2) Male BL6/J mice were injected via tail vein with a mix of Ficoll-FITC 150 mg/kg and Sema3a (R&D System, USA), 0.5 μg/g of BW, in a maximal volume of 100 μl.
(§2) The animals went under transcutaneous fluorescent measurement for 2 h, as described before. The GFB integrity test was able to detect the loss of fluorescent dye due to podocyte effacement as well as the increased ACR in the urine. […] This peptide is able to disrupt the ability of the Sema3A to induce the decay of the fluorescent dye. The sensitivity of the GFBI test was evaluated as follows and subjects were pre-treated according to the following groups: • 1. […]

Test [5] deals with Male BL6/J mice. In words: ACR after Sema3a bolus injection. The format is in vivo. Particulars: Sema3a 0.5 μg/g bodyweight i.v.; vs BSA control. Here is the method: as §1, §2
For test [6] the following is noted: Tapia R et al, KI, 2008; cited from earlier work.

“Also recorded” adds a separate entry of the source.

With `Nc1nc(-c2nn(Cc3ccccc3F)c3ncccc23)ncc1C1CC1` [5-cyclopropyl-2-[1-(2-fluorobenzyl)-1H-pyrazolo[3,4-b]pyridin-3-yl]pyrimidin-4-amine], the entries for the “Reduction of ACR” value in the test on C57Bl/6 mice [1] (1 mg/kg orally prior to AngII) and in the test on C57Bl/6 mice [1] (3 mg/kg orally prior to AngII (sGC stimulator experiment)) were 54% and 62%, respectively. The “AngII induced ACR, mean±SD” value in the test on C57Bl/6 mice [1] (1 mg/kg orally prior to AngII 10 μg i.v.+10 μg s.c.) was determined as 50 ± 49 µg/mg; in the test with C57Bl/6 mice [1] (3 mg/kg orally prior to AngII 10 μg i.v.+10 μg s.c. (sGC stimulator experiment)), 42 ± 35 µg/mg. Also, in test [2], the “Effect on angiotensin II-induced cardiovascular remodeling” value is “ameliorates angiotensin II-induced cardiovascular remodeling”.

Consider `NC(=O)CC[C@@H]1NC(=O)[C@H](Cc2ccccc2)NC(=O)[C@H](Cc2ccc(O)cc2)NC(=O)[C@@H](N)CSSC[C@@H](C(=O)N2CCC[C@H]2C(=O)N[C@@H](CCCN=C(N)N)C(=O)NCC(N)=O)NC(=O)[C@H](CC(N)=O)NC1=O` [AVP], for which, in the test on C57Bl/6 mice [3], the “ACR in urine collected for 4 hours after AVP bolus injection” value was “significant increase of ACR”. Moreover, the “GFR 2 hrs after AVP bolus injection” value in the test with mice is on record as “decreased; also recorded: significant decrease in GFR”.

B1: Sema3a: recombinant mouse Semaphorin-3A protein (R&D System), non-hypertensive injury inducer (protein, UniProt O08665 21-772, looked up)
Semaphorin-3A: NYANGKNNVPRLKLSYKEMLESNNVITFNGLANSSSYHTFLLDEERSRLYVGAKDHIFSFNLVNIKDFQKIVWPVSYTRRDECKWAGKDILKECANFIKVLEAYNQTHLYACGTGAFHPICTYIEVGHHPEDNIFKLQDSHFENGRGKSPYDPKLLTASLLIDGELYSGTAADFMGRDFAIFRTLGHHHPIRTEQHDSRWLNDPRFISAHLIPESDNPEDDKVYFFFRENAIDGEHSGKATHARIGQICKNDFGGHRSLVNKWTTFLKARLICSVPGPNGIDTHFDELQDVFLMNSKDPKNPIVYGVFTTSSNIFKGSAVCMYSMSDVRRVFLGPYAHRDGPNYQWVPYQGRVPYPRPGTCPSKTFGGFDSTKDLPDDVITFARSHPAMYNPVFPINNRPIMIKTDVNYQFTQIVVDRVDAEDGQYDVMFIGTDVGTVLKVVSVPKETWHDLEEILLEEMTVFREPTTISAMELSTKQQQLYIGSTAGVAQLPLHRCDIYGKACAECCLARDPYCAWDGSSCSRYFPTAKRRTRRQDIRNGDPLTHCSDLQHHDNHHGPSLEERIIYGVENSSTFLECSPKSQRALVYWQFQRRNEDRKEEIRMGDHIIRTEQGLLLRSLQKKDSGNYLCHAVEHGFMQTLLKVTLEVIDTEHLEELLHKDDDGDGSKIKEMSSSMTPSQKVWYRDFMQLINHPNLNTMDEFCEQVWKRDRKQRRQRPGHSQGSSNKWKHMQESKKGRNRRTHEFERAPRSV
With B1, the “Half-life of fluorescent molecule Ficoll-FITC 2 hrs after Sema3a bolus injection” value is given as “significantly decreased half-life” with Male BL6/J mice [4] and “significant decrease in half-life” in the test on Male BL6/J mice [4] (listed as Sema3A). In the test on Male BL6/J mice [5], the “ACR after Sema3a bolus injection” value is given as “significantly increased ACR”. Moreover, the “ACR after injection of recombinant Sema3a” value in test [6] is recorded as “robust, transient ACR within 4-24 h”.
